In patent US10632130B2, “Dehydroandrosterol and methods of using the same” (A[…], LLC, priority 2016, dated 2020):
Read-outs that look alike come from different tables or passages of the source.

Tests used:
[1] = testosterone as comparative standard; estimated; cited from earlier work
goats = tested on: goats
Procedure: Caprine studies were also performed in two test animals. The test animals selected were monozygous male twins, castrated and placed in separate pens not later than six weeks after birth.
At approximately three months of age, one of these two goats was selected to receive daily DHA in a single, bolus, oral dose. The other goat was not given DHA, and served as the control. All parameters were equalized (pen size, ambient temperature, once daily exercise for 15 minutes on tread mill, 30 minute “play” time with other goats, twice daily ad-lib feeding of identical source feed, etc.)
Dosing was initiated in the test goat at 50 mg. After two weeks, the dose was increased to 100 mg, then after another two weeks increased to 200 mg, then maintained at that dose for an additional four weeks.
At the end of the eight week testing period, the two test animals were weighed to establish gains made from their original base-line weight at the beginning of the study.

human, male volunteers [2] = tested on: human, male volunteers
Description: Two human, male volunteers were selected to trial the encapsulated DHA material by daily oral administration. They were allowed to select their own serving schedules and serving sizes (within reason of extrapolated values), provided they be consistent and document the compliance of their regimens. Both were of mature age, not naive to various exogenously supplied androgens, and in good general health. Food and exercise routine was not modified from normal during the testing period, so as to avoid introduction of confounding variables.
In particular, Trial Participant #1 was a person who took five capsules a day (100 mg/day DHA) of the composition for sixteen weeks. […] Trial Participant #2 was a person who took four capsules a day (80 mg/day DHA) of the composition for six weeks.

human, male volunteers [3] = tested on: human, male volunteers; remark: listed apart in the source
Procedure: Two human, male volunteers were selected to pre-trial the DHA material by single daily oral administration. Both were of mature age, not naive to various exogenously supplied androgens, and in good general health. Food and exercise routine was not modified from normal during the testing period, so as to avoid introduction of confounding variables.
Doses were ramped 50 mg weekly, beginning at 50 mg and concluding at 200 mg.
One of the test subjects (Subject #2) took a two week washout after this initial testing regiment and resumed testing at 100 mg, ramping the dose weekly as prior but using 100 mg increments, such that at four weeks of testing the subject was using 400 mg.
After another two week washout period, Subject #2 elected to resume testing of DHA with another related compound, androsterone, at various doses. Over several more months, this DHA/androsterone ratio was altered over a range and maintained at various ratios for not less than five days at a time before modification.

[4] = Trial Participant #2, 80 mg/day DHA, six weeks

In the case of `C[C@]12CC[C@H]3[C@@H](CC=C4C[C@H](O)CC[C@@]43C)[C@@H]1CC[C@@H]2O` [DHA, 5-Androsten-3a,17b-diol], the “relative androgenic activity equivalent to that of testosterone” value [1] is listed as “approximately 43%”, the “male behavior in castrate male” value (goats; test goat in play pen with superior goats) is listed as “Alpha-male behavior was indeed noted to be established” and the “appetite and food intake” value (goats; test goat versus control) is listed as “greater appetite and food intake”. The “weight gain relative to control goat” value (goats; test goat, eight weeks) was “approximately double”, the general weight gain (goats; test goat, eight weeks, from base-line 46 pounds, control 33%) was 59% and the “weight at end of testing” value (goats; test goat, eight weeks, oral 50 mg, then 100 mg, then 200 mg daily, start weight 46 pounds, control 61 pounds) was 73 pounds. For the same compound, the weight gained (human, male volunteers [2]; Trial Participant #1, 100 mg/day DHA, sixteen weeks) was “fifteen”, the “bench press at the end” value (human, male volunteers [2]; Trial Participant #1, 100 mg/day DHA, sixteen weeks, 270 pounds at the beginning) was 340 and the “single repetition leg squats at the end” value (human, male volunteers [2]; Trial Participant #1, 100 mg/day DHA, sixteen weeks, 430 pounds at the beginning) was 545 pounds. For the same compound, the “deadlift at the end” value (human, male volunteers [2]; Trial Participant #1, 100 mg/day DHA, sixteen weeks, 455 pounds at the beginning) was 560 pounds, the “improvement of all major lifting measurements from start to finish” value (human, male volunteers [2]; [4]) was 20-25 pounds and the weight gained (human, male volunteers [2]; [4]) was “twelve”. For the same compound, the “androgenic synergism with androsterone” value (human, male volunteers [3]; Subject #2, extended testing, co-administered androsterone over a wide dose range) was “punctuated androgenic synergism”, the “dose dependence of effects” value (human, male volunteers [3]; both test subjects) was “proportional to dose in a fairly linear fashion” and the “parameters associated with enhanced androgen status (muscle hardness/fullness, strength)” value (human, male volunteers [3]; both test subjects) was “distinct improvements”. The “side-effects characteristic of exogenous hormones” value (human, male volunteers [3]; both test subjects, acne only noted at the higher doses tested) was “mild acne being the only undesirable effect”, the “subjective improvements, as defined by weight, strength, and/or muscle hardness gain” value (human, male volunteers [3]; both test subjects, one month, oral doses ramped 50 mg weekly from 50 mg to 200 mg) was “subjective improvements” and the “reported effects of consumer use” value was “increases in strength, lean muscle gains, increased fat loss, appetite increase, libido boost, increased energy, and increased muscle hardness”. For the same compound, the reported side effects (consumer use) was “slight acne and slight lethargy”.
